Active and inactive are the calls of the source. For most assays here, no stated cut-off is given here; in the data, actives have a measured EC50 and inactives only a lower limit.
Tests used:
[1] = biological target: T1, Carboxy-terminal domain RNA polymerase II polypeptide A small phosphatase 1 (Homo sapiens, UniProt Q9GZU7); experiment: inhibitors of CTDSP1, concentration-response testing, biochemical assay, absorbance-based, actives from ultra-high-throughput screening (AID 540297); assay type: functional
T1 sequence (Q9GZU7 whole entry): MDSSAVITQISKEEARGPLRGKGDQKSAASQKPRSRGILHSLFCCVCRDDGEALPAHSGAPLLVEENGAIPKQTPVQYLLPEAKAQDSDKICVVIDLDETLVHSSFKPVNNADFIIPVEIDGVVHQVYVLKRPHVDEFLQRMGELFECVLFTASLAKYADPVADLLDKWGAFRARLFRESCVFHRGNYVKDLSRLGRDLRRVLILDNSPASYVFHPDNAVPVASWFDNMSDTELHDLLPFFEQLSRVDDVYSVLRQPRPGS

BJ [2] = experiment: cytotoxicity toward BJ-TERT-LT-ST fibroblasts, dose response, cell-based, RAS-independent, luminescence (AID 1935); assay type: functional; conditions: Homo sapiens;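 further: BJ fibroblasts immortalized with TERT plus LT and ST oncogenes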
[3] = cytotoxicity toward DRD oncogenic fibroblasts, dose response, cell-based, non-viral oncogenic, luminescence (AID 1934); assay type: functional; conditions: Homo sapiens
BJ [4] = experiment: cells; assay type: functional, cell-based; conditions: Homo sapiens
BJ [5] = experiment: cytotoxicity toward BJ-TERT fibroblasts, dose response, cell-based, RAS-independent, luminescence (AID 1933); assay type: functional; conditions: Homo sapiens
Protein skinhead-1 = biological target: T2, Protein skinhead-1 (Caenorhabditis elegans, UniProt P34707); assay type: functional
T2 sequence (P34707 whole entry): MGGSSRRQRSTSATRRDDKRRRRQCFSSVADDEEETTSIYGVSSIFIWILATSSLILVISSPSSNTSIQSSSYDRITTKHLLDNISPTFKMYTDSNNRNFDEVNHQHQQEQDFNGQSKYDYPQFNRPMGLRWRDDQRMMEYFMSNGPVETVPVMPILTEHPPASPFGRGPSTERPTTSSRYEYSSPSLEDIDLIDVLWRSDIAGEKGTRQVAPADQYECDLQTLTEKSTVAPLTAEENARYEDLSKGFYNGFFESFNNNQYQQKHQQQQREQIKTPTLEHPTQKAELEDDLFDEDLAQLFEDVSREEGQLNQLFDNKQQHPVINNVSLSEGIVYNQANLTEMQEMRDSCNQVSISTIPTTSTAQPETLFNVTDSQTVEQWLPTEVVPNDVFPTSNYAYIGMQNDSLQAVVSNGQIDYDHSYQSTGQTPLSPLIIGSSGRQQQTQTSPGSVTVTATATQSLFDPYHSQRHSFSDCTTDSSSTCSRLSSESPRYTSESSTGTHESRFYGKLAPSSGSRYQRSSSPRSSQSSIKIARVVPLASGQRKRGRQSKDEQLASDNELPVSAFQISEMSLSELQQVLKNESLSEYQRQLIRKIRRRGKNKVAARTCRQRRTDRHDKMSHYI

[6] = biological target: T3, Zinc finger protein mex-5 (Caenorhabditis elegans, UniProt Q9XUB2); experiment: MEX-5/TCR-2 RNA interaction inhibitors, dose response, biochemical, C. elegans, fluorescence polarization (AID 1960)
T3 sequence (Q9XUB2 whole entry): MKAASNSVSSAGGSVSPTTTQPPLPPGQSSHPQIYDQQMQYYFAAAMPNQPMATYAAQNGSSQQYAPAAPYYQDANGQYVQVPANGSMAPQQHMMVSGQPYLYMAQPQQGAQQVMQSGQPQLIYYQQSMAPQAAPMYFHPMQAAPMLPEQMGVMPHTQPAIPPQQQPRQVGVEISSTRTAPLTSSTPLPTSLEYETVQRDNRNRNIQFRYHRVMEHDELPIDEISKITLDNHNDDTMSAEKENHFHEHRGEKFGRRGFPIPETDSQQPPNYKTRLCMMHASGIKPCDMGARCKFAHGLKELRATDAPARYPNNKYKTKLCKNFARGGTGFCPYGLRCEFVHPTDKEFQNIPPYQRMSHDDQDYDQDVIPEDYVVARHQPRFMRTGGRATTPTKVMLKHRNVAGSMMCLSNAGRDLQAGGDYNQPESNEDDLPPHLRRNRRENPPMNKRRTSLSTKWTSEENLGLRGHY

[7] = biological target: T4, RNA-binding protein pos-1 (Caenorhabditis elegans, UniProt G5EF15); experiment: inhibitors of POS-1/mex-3 RNA binding, dose response, biochemical, fluorescence polarization (AID 1964);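 further: purified POS-1 fused to maltose binding protein made in E. coli; potency of compounds blocking POS-1 binding to fluorescent RNA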
T4 sequence (G5EF15 whole entry): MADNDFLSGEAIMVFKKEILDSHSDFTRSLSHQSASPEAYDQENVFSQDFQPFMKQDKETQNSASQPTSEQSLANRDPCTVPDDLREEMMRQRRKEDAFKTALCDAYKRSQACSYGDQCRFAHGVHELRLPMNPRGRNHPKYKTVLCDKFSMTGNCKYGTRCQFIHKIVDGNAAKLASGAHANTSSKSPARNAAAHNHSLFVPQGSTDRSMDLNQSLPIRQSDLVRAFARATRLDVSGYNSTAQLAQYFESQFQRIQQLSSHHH

[8] = biological target: T5, Corticotropin-releasing factor receptor 2/Corticotropin-releasing factor-binding protein (Homo sapiens, UniProt P24387+Q13324); experiment: activators of CRF receptor 2 with binding protein – uHTS hits, confirmation (AID 602473); assay type: functional; conditions: read-out: EC50_Mean
T5 sequence (Q13324 whole entry): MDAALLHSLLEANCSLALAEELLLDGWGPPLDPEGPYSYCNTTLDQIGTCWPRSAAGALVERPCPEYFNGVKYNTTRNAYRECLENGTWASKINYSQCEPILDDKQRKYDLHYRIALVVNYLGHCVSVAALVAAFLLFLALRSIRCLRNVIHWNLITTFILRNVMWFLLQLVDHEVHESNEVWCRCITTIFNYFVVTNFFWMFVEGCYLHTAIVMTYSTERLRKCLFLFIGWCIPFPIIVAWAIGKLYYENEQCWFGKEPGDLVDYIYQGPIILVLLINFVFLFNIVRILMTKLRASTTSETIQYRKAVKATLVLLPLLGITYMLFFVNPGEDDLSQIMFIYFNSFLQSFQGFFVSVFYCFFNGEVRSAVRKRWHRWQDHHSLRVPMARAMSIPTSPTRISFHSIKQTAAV
T5 sequence (P24387 whole entry): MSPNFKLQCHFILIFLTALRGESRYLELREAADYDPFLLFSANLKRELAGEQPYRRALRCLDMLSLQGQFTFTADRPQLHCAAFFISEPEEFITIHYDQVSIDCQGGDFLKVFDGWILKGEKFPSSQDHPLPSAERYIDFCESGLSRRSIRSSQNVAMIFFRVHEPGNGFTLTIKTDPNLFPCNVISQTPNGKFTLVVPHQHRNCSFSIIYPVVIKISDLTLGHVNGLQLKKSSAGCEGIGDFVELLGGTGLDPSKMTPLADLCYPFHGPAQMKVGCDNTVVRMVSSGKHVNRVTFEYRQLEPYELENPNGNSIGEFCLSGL

[9] = biological target: T6, Polyadenylate-binding protein 1 (Homo sapiens, UniProt P11940); experiment: PABP1 MLLE–PAM2 binding inhibitor potency, dose response, biochemical, fluorescence polarization, FITC-PAM2 peptide (AID 602259); assay type: functional; conditions: read-out: IC50_Mean
T6 sequence (P11940 whole entry): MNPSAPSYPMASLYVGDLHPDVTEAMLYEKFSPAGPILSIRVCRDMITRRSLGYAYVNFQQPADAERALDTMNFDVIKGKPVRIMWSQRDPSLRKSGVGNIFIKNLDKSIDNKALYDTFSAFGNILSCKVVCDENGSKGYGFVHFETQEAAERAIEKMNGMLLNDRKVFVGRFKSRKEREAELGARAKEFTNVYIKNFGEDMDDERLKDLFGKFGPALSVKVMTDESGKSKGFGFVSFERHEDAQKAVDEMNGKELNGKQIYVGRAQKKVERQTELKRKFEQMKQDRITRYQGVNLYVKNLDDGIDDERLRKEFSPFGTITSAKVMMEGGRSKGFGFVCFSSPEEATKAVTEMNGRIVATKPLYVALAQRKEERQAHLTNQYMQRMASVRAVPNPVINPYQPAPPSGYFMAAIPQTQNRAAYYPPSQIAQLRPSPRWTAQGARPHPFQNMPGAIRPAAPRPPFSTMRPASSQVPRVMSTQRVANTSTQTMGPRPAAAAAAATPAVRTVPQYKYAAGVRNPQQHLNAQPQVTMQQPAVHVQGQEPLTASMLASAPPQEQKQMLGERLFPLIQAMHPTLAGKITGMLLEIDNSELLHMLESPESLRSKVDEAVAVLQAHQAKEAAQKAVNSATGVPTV

[10] = biological target: T5, Corticotropin-releasing factor receptor 2/Corticotropin-releasing factor-binding protein; experiment: Dose Response confirmation of uHTS hits for small molecule antagonists of the CRF-binding protein and CRF-R2 receptor complex.; assay type: functional; conditions: read-out: IC50_Mean
[11] = biological target: T6, Polyadenylate-binding protein 1; experiment: PABP1 MLLE–PAM2 interaction inhibitors, dose response, miRNA deadenylation inhibitor project, biochemical, fluorescence polarization, Cy5-PAM2 peptide, secondary (AID 602260); assay type: functional; conditions: read-out: IC50_Mean
Streptokinase A = biological target: T7, Streptokinase A (Streptococcus pyogenes serotype M1, UniProt P10520); experiment: S. pyogenes streptokinase expression inhibitors, potency, dose response, plasminogen activation absorbance, OD405 (AID 1914); assay type: functional, Streptococcus pyogenes M1 GAS;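 further: secreted streptokinase activity via plasminogen activation per viability signal from cell pellet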
T7 sequence (P10520 whole entry): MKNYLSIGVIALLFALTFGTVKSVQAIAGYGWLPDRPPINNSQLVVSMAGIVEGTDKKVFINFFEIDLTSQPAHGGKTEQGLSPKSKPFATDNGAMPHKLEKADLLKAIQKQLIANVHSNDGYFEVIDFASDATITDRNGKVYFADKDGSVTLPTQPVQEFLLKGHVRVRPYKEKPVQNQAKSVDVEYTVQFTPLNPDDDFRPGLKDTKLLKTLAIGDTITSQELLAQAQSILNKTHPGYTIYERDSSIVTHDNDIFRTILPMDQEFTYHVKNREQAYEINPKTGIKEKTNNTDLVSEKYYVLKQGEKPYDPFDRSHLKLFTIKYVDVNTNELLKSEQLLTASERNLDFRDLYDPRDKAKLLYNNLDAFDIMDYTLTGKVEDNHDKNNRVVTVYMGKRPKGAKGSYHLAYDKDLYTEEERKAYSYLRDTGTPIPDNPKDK

Streptococcus = experiment: Group A Streptococcus viability loss, dose response, counter-screen for streptokinase expression inhibitor project, luminescence, BacTiterGlo (AID 1915); assay type: functional, organism-based;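 further: potency for reduction of bacterial viability or growth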
[12] = test system: Streptococcus sp. 'group A'; experiment: growth inhibition of control SK(-) GAS strain, dose response, counter-screen for streptokinase expression inhibitor project, luminescence, kanamycin, BacTiterGlo, confirmation (AID 1900); assay type: functional, organism-based
Paired box protein Pax-8 = Paired box protein Pax-8 (Homo sapiens, UniProt Q06710); experiment: inhibitors of PAX8-driven TPO luciferase reporter, dose response, RMG-I cells, cherry-pick (AID 687027); assay type: functional, cell-based;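 further: luciferase reporter driven by Pax8 target thyroperoxidase promoter measured by SteadyGlo luminescence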
Sequence of Paired box protein Pax-8 (Q06710 whole entry): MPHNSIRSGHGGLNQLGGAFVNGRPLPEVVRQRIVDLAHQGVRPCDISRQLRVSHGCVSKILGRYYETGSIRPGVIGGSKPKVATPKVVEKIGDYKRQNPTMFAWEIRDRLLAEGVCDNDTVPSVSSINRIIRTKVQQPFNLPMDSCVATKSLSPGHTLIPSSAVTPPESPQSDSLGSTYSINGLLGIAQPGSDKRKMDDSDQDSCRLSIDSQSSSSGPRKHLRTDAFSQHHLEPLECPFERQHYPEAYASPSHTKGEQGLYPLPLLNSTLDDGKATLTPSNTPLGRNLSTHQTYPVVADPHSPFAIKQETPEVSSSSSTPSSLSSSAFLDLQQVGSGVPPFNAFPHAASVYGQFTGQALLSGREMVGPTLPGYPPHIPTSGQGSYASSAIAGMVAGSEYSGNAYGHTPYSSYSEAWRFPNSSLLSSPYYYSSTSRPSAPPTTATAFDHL

CCOc1ccc(C(=O)Nc2ccc(NC(=O)c3ccccc3)c(C)c2)cc1[N+](=O)[O-]
IC50 [1]: 5.03 µM (active)

Cc1nc([N+](=O)[O-])c(Br)n1CC(=O)c1cccc([N+](=O)[O-])c1
EC50 (BJ [2]): > 150 µM (inconclusive) | EC50 [3]: > 150 µM (not active) | EC50 (BJ [4]): > 150 µM (not active) | EC50 (BJ [5]): > 150 µM (not active)

O=C(O)c1ccc(Nc2ccc([N+](=O)[O-])c3nonc23)cc1
IC50 (Protein skinhead-1): 48.5 µM (active)

COc1ccc(C2C(C#N)=C(N)OC3=C2C(=O)CCC3)c(OC)c1OC (stereo unspecified)
EC50 [6]: > 300 µM (not active) | EC50 [7]: > 300 µM (not active)

CN(C(=O)CN1C(=O)/C(=C/c2ccccc2Cl)SC1=S)C1CCS(=O)(=O)C1 (stereo unspecified)
EC50 [8]: > 53 µM (inactive) | IC50 [9]: > 66 µM (inactive) | IC50 [10]: > 47.1 µM (inactive) | IC50 [11]: > 66 µM (inactive)

CCOc1ccc2nc(NC(=O)CN3CCC(n4nnc5cc(C(F)(F)F)ccc54)CC3)sc2c1
IC50 (Protein skinhead-1): > 100 µM (inactive) | EC50 (Streptokinase A): > 150 µM (not active) | EC50 (Streptococcus): > 150 µM (not active) | EC50 [12]: 68.6 µM (active)

c1ccc(-c2cn3c(n2)-c2ccccc2C3)cc1
EC50 (BJ [2]): > 150 µM (inconclusive) | EC50 [3]: 11.6 µM (active) | EC50 (BJ [4]): 14.3 µM (active) | EC50 (BJ [5]): 14.9 µM (active)

O=C1c2ccccc2C(=O)N1Nc1ccc([N+](=O)[O-])cc1[N+](=O)[O-]
IC50 [1]: 16.9 µM (active)

Cc1ccc2[nH]c(/C(C#N)=C/c3ccc(-c4cccc([N+](=O)[O-])c4)o3)nc2c1
IC50 [1]: 6.06 µM (active)

CC(C)(C)OC(=O)NCCCC1=CC2=CC(=O)C(C)(OC(=O)c3ccc(Cl)nc3)C(=O)C2=CO1 (stereo unspecified)
EC50 [6]: 20 µM (active) | EC50 [7]: 17.2 µM (active)

COc1cc2nc(C3CCC3)nc(N3CCN(c4ccccc4OC)CC3)c2cc1OC
AC50 (Paired box protein Pax-8): 18.9 µM (active)

Cn1ncc2c(NCCc3ccccc3)nc(Cl)nc21
IC50 (Protein skinhead-1): > 100 µM (inactive)

From ChEMBL document CHEMBL1201862, “PubChem BioAssay data set” (2004)
